Like-named read-outs stand apart in the source and are kept apart here.

The record followed here is patent US4999042A, “Phenyl oximino-acetate fungicides” (Imperial Chemical Industries PLC, priority 1986, dated 1991).

What all share (assay type): in vivo
Data set [1] concerns Apple (AP). Nature of the data set: Plant growth regulating whole plant screen, apple. The conditions noted are these: 4000 ppm (4 kg/ha) spray, visual score after 2-6 weeks. The procedure: (§1) This Example illustrates the plant growth regulating properties of compounds 1, 2, 5 and 12-15 of Table I when tested on a whole plant screen against two species of plant. The plant species are identified in Table IV with the leaf stage at which they were sprayed.
(§2) A formulation of each chemical was applied at 4000 ppm (4 kg/ha in a 1000 1/ha field volume) using a tracksprayer and a SS8004E (Teejet) nozzle.
(§3) After spraying, the plants were grown in a glasshouse with 25° C. day/22° C. night temperatures. Supplementary lighting was supplied when necessary to provide an average photoperiod of 16 hours (14 hours minimum).
(§4) After 2-6 weeks in the glasshouse, depending on species and time of year, the plants were visually assessed for morphological characteristics against a control plant sprayed with a blank formulation.

Data set [2] relates to Pyricularia oryzae (rice).
Data set [3] concerns Cercospora arachidicola (peanut). Nature of the data set: Foliar fungal disease control, Cercospora arachidicola on peanut.
Data set [4] concerns Erysiphe graminis hordei (barley). Nature of the data set: Foliar fungal disease control, Erysiphe graminis hordei on barley. To be noted: inoculated 24 hours before treatment.
Data set [5] relates to Venturia inaequalis (apple). Description: Foliar fungal disease control, Venturia inaequalis on apple.
Data set [6] relates to Puccinia recondita (wheat). Description: Foliar fungal disease control, Puccinia recondita on wheat.
The subject of data set [7] is Plasmopara viticola (vine). Description: Foliar fungal disease control, Plasmopara viticola on vine.
For data set [8], the system named is Maize (MZ). Nature of the data set: Plant growth regulating whole plant screen, maize. The conditions noted are these: 4000 ppm (4 kg/ha) spray. Here is the method: as §1, §2, §3, §4
The mark [9] stands for this setting: 100 ppm foliar spray plus root drench approx. 40 ppm a.i./dry soil, 1-2 days before inoculation.
[10] abbreviates: 100 ppm foliar spray plus root drench approx. 40 ppm a.i./dry soil.

As for `CON=C(C(=O)OC)c1ccccc1NC(=O)c1ccco1` (single isomer, unassigned) [Compound 14], in data set [1], the “I = Interligular or internodal length reduction” value is on record as 1 (10-30%) and the “R = Retardation” value is recorded as 1 (10-30%).

For the molecule `CON=C(C(=O)OC)c1ccccc1/C=C/c1ccco1` (single isomer, unassigned) [Compound 4], the “disease control grading, P[…] (RICE)” value in data set [2] (setting [9]) was 3 (trace - 5% of disease on untreated plants). Besides, the “disease control grading, CERCOSPORA ARACHIDICOLA (PEANUT)” value (“disease control grading … (PEANUT)” for short) in data set [3] (setting [9]) is recorded as 3 (trace - 5% of disease on untreated plants). In addition, in data set [4] (setting [10]), the “disease control grading, ERYSIPHE GRAMINIS HORDEI (BARLEY)” value (“disease control grading … (BARLEY)” for short) is recorded as 0 (60-100% of disease on untreated plants). For the same molecule, the “disease control grading, VENTURIA INAEQUALIS (APPLE)” value (shortened to “disease control grading … (APPLE)”) in data set [5] (setting [9]) stood at 4. For the same molecule, the “disease control grading, PUCCINIA RECONDITA (WHEAT)” value (“disease control grading … (WHEAT)” for short) in data set [6] (setting [9]) amounted to 4. In addition, the “disease control grading, PLASMOPARA VITICOLA (VINE)” value (from here on “disease control grading … (VINE)”) in data set [7] (setting [9]) was 4.

As for `CON=C(C(=O)OC)c1ccccc1NC(=O)c1ccccc1` (single isomer, unassigned) [Compound 12], in data set [1], the “G = Greening effect” value is reported as 1 (10-30%), the “I = Interligular or internodal length reduction” value is 1 (10-30%) and the “R = Retardation” value is 2 (31-60%). Besides, in data set [8] (visual score after 2-6 weeks), the “I = Interligular or internodal length reduction” value was 1 (10-30%) and the “R = Retardation” value is listed as 2 (31-60%).

In the case of `CO/N=C(/C(=O)OC)c1ccccc1Oc1ccccc1` [Compound 6, methyl O-methyl(2-phenoxyphenyl)oximino-acetate], in data set [2] (setting [9]), the “disease control grading, P[…] (RICE)” value was 3 (trace - 5% of disease on untreated plants). The “disease control grading … (PEANUT)” value in data set [3] (setting [9]) is 3 (trace - 5% of disease on untreated plants). Also, the “disease control grading … (BARLEY)” value in data set [4] (setting [10]) turned out to be 4. Moreover, in data set [5] (setting [9]), the “disease control grading … (APPLE)” value worked out at 4. Moreover, the “disease control grading … (WHEAT)” value in data set [6] (setting [9]) is listed as 4. Also, the “disease control grading … (VINE)” value in data set [7] (setting [9]) amounted to 4.

As to `CON=C(C(=O)OC)c1ccccc1/C=C/c1ccccc1` (single isomer, unassigned) [Compound 1, methyl O-methyl (2-(E)-styrylphenyl)oximino-acetate], the “disease control grading, P[…] (RICE)” value in data set [2] (setting [9]) is 0 (60-100% of disease on untreated plants). Moreover, the “disease control grading … (PEANUT)” value in data set [3] (setting [9]) is given as 0 (60-100% of disease on untreated plants). Besides, the “disease control grading … (BARLEY)” value in data set [4] (setting [10]) was 0 (60-100% of disease on untreated plants). Further, the “P = Phytotoxicity” value in data set [8] (after 2-6 weeks) was 1 (less than 10%). Also, in data set [8] (visual score after 2-6 weeks), the “A = Apical damage” value is recorded as 3 (61-100%), the “G = Greening effect” value is given as 2 (31-60%), the “I = Interligular or internodal length reduction” value was 3 (61-100%) and the “R = Retardation” value was 3 (61-100%). Also, the “disease control grading … (APPLE)” value in data set [5] (setting [9]) is 3 (trace - 5% of disease on untreated plants). For the same molecule, the “disease control grading … (WHEAT)” value in data set [6] (setting [9]) is 0 (60-100% of disease on untreated plants). For the same molecule, the “disease control grading … (VINE)” value in data set [7] (setting [9]) came out at 4.

As to `CON=C(C(=O)OC)c1cccc2c1Oc1ccccc1O2` (single isomer, unassigned) [Compound 32], the “disease control grading, P[…] (RICE)” value in data set [2] (setting [9]) is 0 (60-100% of disease on untreated plants). The “disease control grading … (PEANUT)” value in data set [3] (setting [9]) was 1 (26-59% of disease on untreated plants). The “disease control grading … (BARLEY)” value in data set [4] (setting [10]) is recorded as 3 (trace - 5% of disease on untreated plants). In addition, the “disease control grading … (APPLE)” value in data set [5] (setting [9]) is 2 (6-25% of disease on untreated plants). For the same molecule, the “disease control grading … (WHEAT)” value in data set [6] (setting [9]) amounted to 4. Further, the “disease control grading … (VINE)” value in data set [7] (setting [9]) was 4.

Consider `CON=C(C(=O)OC)c1ccccc1NC(=O)c1cccs1` (single isomer, unassigned) [Compound 15], for which, in data set [1], the “G = Greening effect” value was 1 (10-30%), the “I = Interligular or internodal length reduction” value was 1 (10-30%) and the “R = Retardation” value is 1 (10-30%).

Take `CON=C(C(=O)OC)c1cccc2c1oc1ccccc12` (single isomer, unassigned) [Compound 18]: the “disease control grading, P[…] (RICE)” value in data set [2] (setting [9]) is listed as 1 (26-59% of disease on untreated plants). In data set [3] (setting [9]), the “disease control grading … (PEANUT)” value is on record as 1 (26-59% of disease on untreated plants). Also, in data set [4] (setting [10]), the “disease control grading … (BARLEY)” value is 0 (60-100% of disease on untreated plants). Moreover, the “disease control grading … (APPLE)” value in data set [5] (setting [9]) is 4. Also, the “disease control grading … (WHEAT)” value in data set [6] (setting [9]) is listed as 3 (trace - 5% of disease on untreated plants). In addition, the “disease control grading … (VINE)” value in data set [7] (setting [9]) was 4.

As for `CON=C(C(=O)OC)c1cccc2c1oc1ccccc12` (single isomer, unassigned) [Compound 17], in data set [2] (setting [9]), the “disease control grading, P[…] (RICE)” value is 0 (60-100% of disease on untreated plants). Further, the “disease control grading … (PEANUT)” value in data set [3] (setting [9]) is listed as 0 (60-100% of disease on untreated plants). Further, the “disease control grading … (BARLEY)” value in data set [4] (setting [10]) is listed as 0 (60-100% of disease on untreated plants). In addition, the “disease control grading … (APPLE)” value in data set [5] (setting [9]) is recorded as 1 (26-59% of disease on untreated plants). Also, the “disease control grading … (WHEAT)” value in data set [6] (setting [9]) is given as 3 (trace - 5% of disease on untreated plants). Also, in data set [7] (setting [9]), the “disease control grading … (VINE)” value was 2 (6-25% of disease on untreated plants).

Regarding `CON=C(C(=O)OC)c1ccccc1OC1CCCCC1` (single isomer, unassigned) [Compound 10], the “disease control grading, P[…] (RICE)” value in data set [2] (25 ppm foliar spray only) is recorded as 3 (trace - 5% of disease on untreated plants). In data set [3] (25 ppm foliar spray only), the “disease control grading … (PEANUT)” value is given as 0 (60-100% of disease on untreated plants). Besides, in data set [4] (25 ppm foliar spray only), the “disease control grading … (BARLEY)” value was 3 (trace - 5% of disease on untreated plants). The “disease control grading … (APPLE)” value in data set [5] (25 ppm foliar spray only) is 2 (6-25% of disease on untreated plants). In addition, in data set [6] (25 ppm foliar spray only), the “disease control grading … (WHEAT)” value was 3 (trace - 5% of disease on untreated plants). In addition, in data set [7] (25 ppm foliar spray only), the “disease control grading … (VINE)” value is listed as 2 (6-25% of disease on untreated plants).

Turning to `CON=C(C(=O)OC)c1ccccc1N(C)C(=O)c1cccs1` (single isomer, unassigned) [Compound 33], the “disease control grading, P[…] (RICE)” value in data set [2] (setting [9]) is given as 0 (60-100% of disease on untreated plants). Moreover, the “disease control grading … (PEANUT)” value in data set [3] (setting [9]) is listed as 0 (60-100% of disease on untreated plants). The “disease control grading … (BARLEY)” value in data set [4] (setting [10]) is reported as 0 (60-100% of disease on untreated plants). The “disease control grading … (APPLE)” value in data set [5] (setting [9]) worked out at 4. The “disease control grading … (WHEAT)” value in data set [6] (setting [9]) is on record as 0 (60-100% of disease on untreated plants). In data set [7] (setting [9]), the “disease control grading … (VINE)” value is recorded as 0 (60-100% of disease on untreated plants).

Take `CON=C(C(=O)OC)c1ccccc1NC(=O)c1ccco1` (single isomer, unassigned) [Compound 13]: in data set [2] (setting [9]), the “disease control grading, P[…] (RICE)” value was 0 (60-100% of disease on untreated plants). For the same molecule, the “disease control grading … (PEANUT)” value in data set [3] (setting [9]) is recorded as 2 (6-25% of disease on untreated plants). In data set [1], the “G = Greening effect” value was 1 (10-30%), the “I = Interligular or internodal length reduction” value was 1 (10-30%) and the “R = Retardation” value is 2 (31-60%). In data set [4] (setting [10]), the “disease control grading … (BARLEY)” value is on record as 0 (60-100% of disease on untreated plants). For the same molecule, in data set [8] (visual score after 2-6 weeks), the “I = Interligular or internodal length reduction” value was 1 (10-30%) and the “R = Retardation” value was 2 (31-60%). In data set [6] (setting [9]), the “disease control grading … (WHEAT)” value is given as 0 (60-100% of disease on untreated plants). Further, the “disease control grading … (VINE)” value in data set [7] (setting [9]) is given as 0 (60-100% of disease on untreated plants).

`CON=C(C(=O)OC)c1ccccc1/C=C/c1ccco1` (single isomer, unassigned) [Compound 3]: the “disease control grading, P[…] (RICE)” value in data set [2] (setting [9]) is 0 (60-100% of disease on untreated plants). Also, in data set [3] (setting [9]), the “disease control grading … (PEANUT)” value is on record as 0 (60-100% of disease on untreated plants). Besides, the “disease control grading … (BARLEY)” value in data set [4] (setting [10]) was 0 (60-100% of disease on untreated plants). For the same molecule, in data set [5] (setting [9]), the “disease control grading … (APPLE)” value is 4. Besides, the “disease control grading … (WHEAT)” value in data set [6] (setting [9]) is on record as 0 (60-100% of disease on untreated plants). The “disease control grading … (VINE)” value in data set [7] (setting [9]) is 0 (60-100% of disease on untreated plants).

Turning to `CON=C(C(=O)OC)c1ccccc1Oc1ccc([N+](=O)[O-])cc1` (single isomer, unassigned) [Compound 7], the “disease control grading, P[…] (RICE)” value in data set [2] (setting [9]) is recorded as 0 (60-100% of disease on untreated plants). The “disease control grading … (PEANUT)” value in data set [3] (setting [9]) is given as 0 (60-100% of disease on untreated plants). The “disease control grading … (BARLEY)” value in data set [4] (setting [10]) is given as 1 (26-59% of disease on untreated plants). In addition, in data set [5] (setting [9]), the “disease control grading … (APPLE)” value is 3 (trace - 5% of disease on untreated plants). Moreover, the “disease control grading … (WHEAT)” value in data set [6] (setting [9]) is reported as 0 (60-100% of disease on untreated plants). Also, the “disease control grading … (VINE)” value in data set [7] (setting [9]) is on record as 3 (trace - 5% of disease on untreated plants).
